From US8680139B2 (Progenra, priority 2009, dated 2014)

Target: T1, USP7 (Homo sapiens, UniProt Q93009)
T1 construct: full length human USP7 protein; made in house
Test: USP7, Ub-PLA2 assay
Format: biochemical
Conditions: Ub-PLA2 / NBD C6-HPC fluorescence, 30 minute preincubation; read-out: EC50 for inhibition of USP7
How it was run: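 Activity read as fluorescence in a Ub-PLA2 format, with percent inhibition calculated within each plate against DMSO (uninhibited) and NEM (background) wells. Vehicle was 100% DMSO.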

T1 sequence (Q93009 whole entry): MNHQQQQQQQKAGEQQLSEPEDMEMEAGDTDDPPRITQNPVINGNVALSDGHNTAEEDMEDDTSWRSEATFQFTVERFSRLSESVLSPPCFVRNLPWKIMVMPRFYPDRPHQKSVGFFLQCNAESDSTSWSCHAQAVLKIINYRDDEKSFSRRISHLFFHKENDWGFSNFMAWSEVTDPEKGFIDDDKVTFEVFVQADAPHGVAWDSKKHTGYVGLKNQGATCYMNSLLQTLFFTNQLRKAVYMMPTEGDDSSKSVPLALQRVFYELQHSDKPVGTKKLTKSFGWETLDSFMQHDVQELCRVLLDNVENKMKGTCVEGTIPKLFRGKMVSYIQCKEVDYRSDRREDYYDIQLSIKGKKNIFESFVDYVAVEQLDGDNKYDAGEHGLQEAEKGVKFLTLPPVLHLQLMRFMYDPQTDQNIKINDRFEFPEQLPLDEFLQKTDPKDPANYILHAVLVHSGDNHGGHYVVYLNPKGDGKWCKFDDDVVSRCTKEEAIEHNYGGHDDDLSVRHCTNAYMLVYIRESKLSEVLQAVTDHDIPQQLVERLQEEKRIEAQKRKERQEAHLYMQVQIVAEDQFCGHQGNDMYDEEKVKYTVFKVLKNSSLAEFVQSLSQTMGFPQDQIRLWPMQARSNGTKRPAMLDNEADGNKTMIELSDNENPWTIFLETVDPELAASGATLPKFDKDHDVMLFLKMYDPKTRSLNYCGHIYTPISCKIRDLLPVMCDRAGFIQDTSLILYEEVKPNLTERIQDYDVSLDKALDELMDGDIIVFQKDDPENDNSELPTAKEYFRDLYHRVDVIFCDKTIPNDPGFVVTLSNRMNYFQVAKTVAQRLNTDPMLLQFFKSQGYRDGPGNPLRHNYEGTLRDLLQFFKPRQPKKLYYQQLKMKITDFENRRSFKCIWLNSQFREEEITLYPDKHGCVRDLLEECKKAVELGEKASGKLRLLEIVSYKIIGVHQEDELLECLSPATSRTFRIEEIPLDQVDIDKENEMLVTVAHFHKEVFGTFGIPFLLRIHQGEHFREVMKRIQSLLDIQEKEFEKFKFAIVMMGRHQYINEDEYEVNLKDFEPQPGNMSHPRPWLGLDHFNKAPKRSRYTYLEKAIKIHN

| Compound | EC50 |
| --- | --- |
| O=C(NCCCN1CCCCC1)c1cc([N+](=O)[O-])c(Sc2c(Cl)cncc2Cl)s1 [Example 100, 5-((3,5-dichloropyridin-4-yl)thio)-4-nitro-N-(3-(piperidin-1-yl)propyl)thiophene-2-carboxamide] | ≤ 1000 nM |
| O=C(NC1CCCNC1=O)c1cc([N+](=O)[O-])c(Sc2c(Cl)cncc2Cl)s1 (stereo not drawn) [Example 95, 5-((3,5-dichloropyridin-4-yl)thio)-4-nitro-N-(2-oxopiperidin-3-yl)thiophene-2-carboxamide] | 1000 to 10000 nM |
| O=C(NC1CCNCC1)c1cc([N+](=O)[O-])c(Sc2c(Cl)cncc2Cl)s1 [Example 196, 5-((3,5-dichloropyridin-4-yl)thio)-4-nitro-N-(piperidin-4-yl)thiophene-2-carboxamide] | ≤ 1000 nM |
| COc1ccc(NC(=O)c2cc([N+](=O)[O-])c(Sc3c(Cl)cncc3Cl)s2)c(C)c1 [Example 132, 5-((3,5-dichloropyridin-4-yl)thio)-N-(4-methoxy-2-methylphenyl)-4-nitrothiophene-2-carboxamide] | ≤ 1000 nM |
| COc1cccc(CNC(=O)c2cc([N+](=O)[O-])c(Sc3c(Cl)cncc3Cl)s2)c1OC [Example 97, 5-((3,5-dichloropyridin-4-yl)thio)-N-(2,3-dimethoxybenzyl)-4-nitrothiophene-2-carboxamide] | ≤ 1000 nM |
| CC(=O)c1cc([N+](=O)[O-])c([S+]([O-])c2ccc(Cl)cc2Cl)s1 (stereo not drawn) [Example 34, 1-[5-(2,4-dichlorophenyl)sulfinyl-4-nitro-2-thienyl]ethanone] | > 10000 nM |
| Cc1cnc(NC(=O)c2cc([N+](=O)[O-])c(Sc3c(Cl)cncc3Cl)s2)s1 [Example 89] | 1000 to 10000 nM |
| O=C(NCCCN1CCCC1=O)c1cc([N+](=O)[O-])c(Sc2ccc(Cl)cc2Cl)s1 [Example 82, 5-((2,4-dichlorophenyl)thio)-4-nitro-N-(3-(2-oxopyrrolidin-1-yl)propyl)thiophene-2-carboxamide] | 1000 to 10000 nM |
| CC(N)c1cc([N+](=O)[O-])c(Sc2ccc(Cl)cc2Cl)s1 (stereo not drawn) [Example 27, 1-[5-(2,4-dichlorophenyl)sulfanyl-4-nitro-2-thienyl]ethanamine] | > 10000 nM |
| CN1CCC(NC(=O)Nc2cc([N+](=O)[O-])c(Sc3c(Cl)cncc3Cl)s2)CC1 [Example 270, 1-(5-((3,5-dichloropyridin-4-yl)thio)-4-nitrothiophen-2-yl)-3-(1-methylpiperidin-4-yl)urea] | 1000 to 10000 nM |
| O=C(NCc1cccc(Cl)c1)c1cc([N+](=O)[O-])c(Sc2c(Cl)cncc2Cl)s1 [Example 57, N-(3-chlorobenzyl)-5-((3,5-dichloropyridin-4-yl)thio)-4-nitrothiophene-2-carboxamide] | 1000 to 10000 nM |
| O=C(NC1CCN(C2CC2)C1)c1cc([N+](=O)[O-])c(Sc2c(Cl)cncc2Cl)s1 (stereo not drawn) [Example 198, N-(1-cyclopropylpyrrolidin-3-yl)-5-((3,5-dichloropyridin-4-yl)thio)-4-nitrothiophene-2-carboxamide] | 1000 to 10000 nM |
| O=C(NCCc1ccc(F)cc1)c1cc([N+](=O)[O-])c(Sc2c(Cl)cncc2Cl)s1 [Example 120, 5-((3,5-dichloropyridin-4-yl)thio)-N-(4-fluorophenethyl)-4-nitrothiophene-2-carboxamide] | ≤ 1000 nM |
| CN(C)C(=O)c1cc([N+](=O)[O-])c(Sc2c(Cl)cncc2Cl)s1 [Example 49, 5-[(3,5-dichloro-4-pyridyl)sulfanyl]-N,N-dimethyl-4-nitro-thiophene-2-carboxamide] | 1000 to 10000 nM |
| CC(C)CCNC(=O)c1cc([N+](=O)[O-])c(Sc2c(Cl)cncc2Cl)s1 [Example 110, 5-((3,5-dichloropyridin-4-yl)thio)-N-isopentyl-4-nitrothiophene-2-carboxamide] | ≤ 1000 nM |
| COc1cncc(CNC(=O)c2cc([N+](=O)[O-])c(Sc3c(Cl)cncc3Cl)s2)c1 [Example 239, 5-((3,5-dichloropyridin-4-yl)thio)-N-((5-methoxypyridin-3-yl)methyl)-4-nitrothiophene-2-carboxamide] | ≤ 1000 nM |
| O=C(NCCOc1ccccc1)c1cc([N+](=O)[O-])c(Sc2c(Cl)cncc2Cl)s1 [Example 54, 5-((3,5-dichloropyridin-4-yl)thio)-4-nitro-N-(2-phenoxyethyl)thiophene-2-carboxamide] | 1000 to 10000 nM |
| CN1CCC(O)(CNC(=O)c2cc([N+](=O)[O-])c(Sc3c(Cl)cncc3Cl)s2)CC1 [Example 90, 5-((3,5-dichloropyridin-4-yl)thio)-N-((4-hydroxy-1-methylpiperidin-4-yl)methyl)-4-nitrothiophene-2-carboxamide] | 1000 to 10000 nM |
| CS(=O)(=O)c1ccc(NC(=O)c2cc(C#N)c(Sc3c(Cl)cncc3Cl)s2)cc1 [Example 208, 4-cyano-5-((3,5-dichloropyridin-4-yl)thio)-N-(4-(methylsulfonyl)phenyl)thiophene-2-carboxamide] | ≤ 1000 nM |
| Cc1nc(NC(=O)c2cc([N+](=O)[O-])c(Sc3c(Cl)cncc3Cl)s2)sc1C [Example 88, 5-((3,5-dichloropyridin-4-yl)thio)-N-(4,5-dimethylthiazol-2-yl)-4-nitrothiophene-2-carboxamide] | 1000 to 10000 nM |

| Compound | EC50 |
| --- | --- |
| CSc1ccc(NC(=O)c2cc([N+](=O)[O-])c(Sc3c(Cl)cncc3Cl)s2)cc1 [Example 174, 5-((3,5-dichloropyridin-4-yl)thio)-N-(4-(methylthio)phenyl)-4-nitrothiophene-2-carboxamide] | ≤ 1000 nM |
| CCN1CCC(CCNC(=O)c2cc([N+](=O)[O-])c(Sc3c(Cl)cncc3Cl)s2)CC1 [Example 185, 5-((3,5-dichloropyridin-4-yl)thio)-N-(2-(1-ethylpiperidin-4-yl)ethyl)-4-nitrothiophene-2-carboxamide] | ≤ 1000 nM |
| O=C(c1cc([N+](=O)[O-])c(Sc2c(Cl)cncc2Cl)s1)N1CCCC(O)C1 (stereo not drawn) [Example 83, (5-((3,5-dichloropyridin-4-yl)thio)-4-nitrothiophen-2-yl)(3-hydroxypiperidin-1-yl)methanone] | 1000 to 10000 nM |
| CCOC(=O)CNC(=O)c1cc([N+](=O)[O-])c(Sc2c(Cl)cncc2Cl)s1 [Example 209, Ethyl 2-(5-((3,5-dichloropyridin-4-yl)thio)-4-nitrothiophene-2-carboxamido)acetate] | 1000 to 10000 nM |
| O=C(NCCCN1CCCCC1)c1cc([N+](=O)[O-])c(Sc2ccc(F)cc2F)s1 [Example 267, 5-((2,4-difluorophenyl)thio)-4-nitro-N-(3-(piperidin-1-yl)propyl)thiophene-2-carboxamide] | > 10000 nM |
| CC(=O)c1ccc(NC(=O)c2cc([N+](=O)[O-])c(Sc3c(Cl)cncc3Cl)s2)cc1 [Example 183, N-(4-acetylphenyl)-5-((3,5-dichloropyridin-4-yl)thio)-4-nitrothiophene-2-carboxamide] | ≤ 1000 nM |
| COc1cc(CNC(=O)c2cc([N+](=O)[O-])c(Sc3c(Cl)cncc3Cl)s2)cc(OC)c1 [Example 69, 5-((3,5-dichloropyridin-4-yl)thio)-N-(3,5-dimethoxybenzyl)-4-nitrothiophene-2-carboxamide] | 1000 to 10000 nM |
| CN(C)c1ccc(CNC(=O)c2cc([N+](=O)[O-])c(Sc3c(Cl)cncc3Cl)s2)cc1 [Example 121, 5-((3,5-dichloropyridin-4-yl)thio)-N-(4-(dimethylamino)benzyl)-4-nitrothiophene-2-carboxamide] | ≤ 1000 nM |
| O=C(Nc1ccc2c(c1)CCC2)c1cc([N+](=O)[O-])c(Sc2c(Cl)cncc2Cl)s1 [Example 112] | ≤ 1000 nM |
| O=C(NCc1cccc(C(F)(F)F)c1)c1cc([N+](=O)[O-])c(Sc2c(Cl)cncc2Cl)s1 [Example 148, 5-((3,5-dichloropyridin-4-yl)thio)-4-nitro-N-(3-(trifluoromethyl)benzyl)thiophene-2-carboxamide] | ≤ 1000 nM |
| COc1cccc(CNC(=O)c2cc([N+](=O)[O-])c(Sc3c(Cl)cncc3Cl)s2)c1 [Example 99, 5-((3,5-dichloropyridin-4-yl)thio)-N-(3-methoxybenzyl)-4-nitrothiophene-2-carboxamide] | ≤ 1000 nM |
| COc1cc(NC(=O)c2cc([N+](=O)[O-])c(Sc3c(Cl)cncc3Cl)s2)ccc1OCCCN(C)C [Example 240, 5-((3,5-dichloropyridin-4-yl)thio)-N-(4-(3-(dimethylamino)propoxy)-3-methoxyphenyl)-4-nitrothiophene-2-carboxamide] | ≤ 1000 nM |
| CC(=O)c1cc([N+](=O)[O-])c(Sc2ccc(C(F)(F)F)cc2)s1 [Example 10, 1-{5-[4-(Trifluoromethyl)phenylsulfanyl]-4-nitro-2-thienyl}ethanone] | 1000 to 10000 nM |
| O=C(Nc1cc(-c2ccccc2)n[nH]1)c1cc([N+](=O)[O-])c(Sc2c(Cl)cncc2Cl)s1 [Example 71, 5-((3,5-dichloropyridin-4-yl)thio)-4-nitro-N-(3-phenyl-1H-pyrazol-5-yl)thiophene-2-carboxamide] | 1000 to 10000 nM |
| CC1(C)CCN(C(=O)c2cc([N+](=O)[O-])c(Sc3c(Cl)cncc3Cl)s2)CC1 [Example 80, (5-((3,5-dichloropyridin-4-yl)thio)-4-nitrothiophen-2-yl)(4,4-dimethylpiperidin-1-yl)methanone] | 1000 to 10000 nM |
| COc1ccccc1CCNC(=O)c1cc([N+](=O)[O-])c(Sc2c(Cl)cncc2Cl)s1 [Example 113, 5-((3,5-dichloropyridin-4-yl)thio)-N-(2-methoxyphenethyl)-4-nitrothiophene-2-carboxamide] | ≤ 1000 nM |
| O=C(NCc1ccc(Br)cc1)c1cc([N+](=O)[O-])c(Sc2c(Cl)cncc2Cl)s1 [Example 118, N-(4-bromobenzyl)-5-((3,5-dichloropyridin-4-yl)thio)-4-nitrothiophene-2-carboxamide] | ≤ 1000 nM |
| CN1CCN(C(=O)c2cc([N+](=O)[O-])c(Sc3c(Cl)cncc3Cl)s2)CC1 [Example 66, (5-((3,5-dichloropyridin-4-yl)thio)-4-nitrothiophen-2-yl)(4-methylpiperazin-1-yl)methanone] | 1000 to 10000 nM |
| CN(C)CCCOc1ccc(NC(=O)c2cc(C#N)c(Sc3c(Cl)cncc3Cl)s2)cc1 [Example 204] | 1000 to 10000 nM |
